Laboratory results from patent US12492173B2, “Herbicidal substituted N-tetrazolyl aryl carboxamides” (Bayer Aktiengesellschaft, priority 2019, dated 2025).

Key:
Type in all cases: in vivo
[1] = tested on: Matricaria inodora; test: Post-emergence herbicidal action, MATIN; set-up: key: % herbicidal action vs untreated; 100 = plants died, 0 = like control; conditions: for herbicidal action MATIN: Dosage 80 g/ha; for Herbicidal action against MATIN: post-emergence, dosage 80 g/ha
Description: (§1) [table] 2. Post-Emergence Herbicidal Action Against Harmful Plants Seeds of monocotyledonous and dicotyledonous weed and crop plants are laid out in sandy loam soil in wood-fiber pots, covered with soil and cultivated in a greenhouse under good growth conditions. 2 to 3 weeks after sowing, the test plants are treated at the one-leaf stage. The compounds of the invention, formulated in the form of wettable powders (WP) or as emulsion concentrates (EC), are then sprayed onto the green parts of the plants in the form of an aqueous suspension or emulsion at a water application rate equating to 600 to 800 l/ha, with addition of 0.2% wetting agent. After the test plants have been left to stand in the greenhouse under optimal growth conditions for about 3 weeks, the action of the preparations is assessed visually in comparison to untreated controls (herbicidal action in percent (%): 100% activity=the plants have died, 0% activity=like control plants). […] The tables below illustrate, in an exemplary manner, the post-emergence herbicidal action of the compounds according to the invention, the herbicidal activity being stated in percent. In the experiments that follow, herbicidal action of numerous inventive compounds and the known compounds that are structurally closest from D1 (WO 2012/028579 A1) and D2 (WO 2018/202535 A1) were compared under the above-specified conditions by the pre-emergence and post-emergence method. The example numbers given in the tables relate to the compounds disclosed in the respective documents. In addition to the compounds disclosed in D1 and D2, the following compounds V-1 to V-14 that are encompassed by D1 or D2 but are not compounds specified therein were used in the comparative experiments: • V-1: 2-(methylsulfanyl)-3-(methylsulfinyl)-N-(1-methyl-1H-tetrazol-5-yl)-4-(trifluoromethyl)benzamide • V-2: 2-(methylsulfanyl)-3-(methylsulfonyl)-N-(1-methyl-1H-tetrazol-5-yl)-4-(trifluoromethyl)benzamide • V-3: 2,3-bis(ethylsulfanyl)-N-(1-methyl-1H-tetrazol-5-yl)-4-(trifluoromethyl)benzamide • V-4: 2-chloro-3-(ethylsulfanyl)-N-(1-methyl-1H-tetrazol-5-yl)-4-(trifluoromethyl)benzamide • V-5: 2-chloro-4-iodo-3-(methylsulfanyl)-N-(1-methyl-1H-tetrazol-5-yl)benzamide • V-6: 2-chloro-4-iodo-3-(methylsulfinyl)-N-(1-methyl-1H-tetrazol-5-yl)benzamide • V-7: 2-chloro-4-iodo-3-(methylsulfonyl)-N-(1-methyl-1H-tetrazol-5-yl)benzamide • V-8: 2-bromo-3-(methylsulfanyl)-N-(1-methyl-1H-tetrazol-5-yl)-4-(trifluoromethyl)benzamide • V-9: 2-bromo-3-(methylsulfinyl)-N-(1-methyl-1H-tetrazol-5-yl)-4-(trifluoromethyl)benzamide • V-10: 2-bromo-3-(methylsulfonyl)-N-(1-methyl-1H-tetrazol-5-yl)-4-(trifluoromethyl)benzamide • V-11: 2-bromo-3-(ethylsulfanyl)-N-(1-methyl-1H-tetrazol-5-yl)-4-(trifluoromethyl)benzamide • V-12: 2-bromo-3-(ethylsulfinyl)-N-(1-methyl-1H-tetrazol-5-yl)-4-(trifluoromethyl)benzamide • V-13: 2-bromo-3-(ethylsulfonyl)-N-(1-methyl-1-1H-tetrazol-5-yl)-4-(trifluoromethyl)benzamide • V-14: 2-cyclopropyl-3-(ethylsulfanyl)-N-(1-methyl-1H-tetrazol-5-yl)-4-(trifluoromethyl)benzamide Herbicidal Pre-Emergence Action: […]

[2] = tested on: Veronica persica; test: Pre-emergence herbicidal action, VERPE; conditions: dosage 320 g/ha
Description: (§2) 1. Pre-Emergence Herbicidal Action Against Harmful Plants Seeds of monocotyledonous and dicotyledonous weed plants and crop plants are laid out in sandy loam soil in wood-fiber pots and covered with soil. The compounds of the invention, formulated in the form of wettable powders (WP) or as emulsion concentrates (EC), are then applied to the surface of the covering soil in the form of an aqueous suspension or emulsion at a water application rate equating to 600 to 800 l/ha, with addition of 0.2% wetting agent. After the treatment, the pots are placed in a greenhouse and kept under good growth conditions for the trial plants. The damage to the test plants is scored visually after a test period of 3 weeks by comparison with untreated controls (herbicidal activity in percent (%): 100% activity=the plants have died, 0% activity=like control plants). […] The tables below illustrate, in an exemplary manner, the […] herbicidal action of the compounds according to the invention, the herbicidal activity being stated in percent. [table] In the experiments that follow, herbicidal action of numerous inventive compounds and the known compounds that are structurally closest from D1 (WO 2012/028579 A1) and D2 (WO 2018/202535 A1) were compared under the above-specified conditions by the pre-emergence and post-emergence method. The example numbers given in the tables relate to the compounds disclosed in the respective documents. In addition to the compounds disclosed in D1 and D2, the following compounds V-1 to V-14 that are encompassed by D1 or D2 but are not compounds specified therein were used in the comparative experiments: • V-1: 2-(methylsulfanyl)-3-(methylsulfinyl)-N-(1-methyl-1H-tetrazol-5-yl)-4-(trifluoromethyl)benzamide • V-2: 2-(methylsulfanyl)-3-(methylsulfonyl)-N-(1-methyl-1H-tetrazol-5-yl)-4-(trifluoromethyl)benzamide • V-3: 2,3-bis(ethylsulfanyl)-N-(1-methyl-1H-tetrazol-5-yl)-4-(trifluoromethyl)benzamide • V-4: 2-chloro-3-(ethylsulfanyl)-N-(1-methyl-1H-tetrazol-5-yl)-4-(trifluoromethyl)benzamide • V-5: 2-chloro-4-iodo-3-(methylsulfanyl)-N-(1-methyl-1H-tetrazol-5-yl)benzamide • V-6: 2-chloro-4-iodo-3-(methylsulfinyl)-N-(1-methyl-1H-tetrazol-5-yl)benzamide • V-7: 2-chloro-4-iodo-3-(methylsulfonyl)-N-(1-methyl-1H-tetrazol-5-yl)benzamide • V-8: 2-bromo-3-(methylsulfanyl)-N-(1-methyl-1H-tetrazol-5-yl)-4-(trifluoromethyl)benzamide • V-9: 2-bromo-3-(methylsulfinyl)-N-(1-methyl-1H-tetrazol-5-yl)-4-(trifluoromethyl)benzamide • V-10: 2-bromo-3-(methylsulfonyl)-N-(1-methyl-1H-tetrazol-5-yl)-4-(trifluoromethyl)benzamide • V-11: 2-bromo-3-(ethylsulfanyl)-N-(1-methyl-1H-tetrazol-5-yl)-4-(trifluoromethyl)benzamide • V-12: 2-bromo-3-(ethylsulfinyl)-N-(1-methyl-1H-tetrazol-5-yl)-4-(trifluoromethyl)benzamide • V-13: 2-bromo-3-(ethylsulfonyl)-N-(1-methyl-1-1H-tetrazol-5-yl)-4-(trifluoromethyl)benzamide • V-14: 2-cyclopropyl-3-(ethylsulfanyl)-N-(1-methyl-1H-tetrazol-5-yl)-4-(trifluoromethyl)benzamide Herbicidal Pre-Emergence Action: […]

[3] = tested on: Pharbitis purpurea; test: Post-emergence herbicidal action, PHBPU; conditions: for herbicidal action PHBPU: Dosage 80 g/ha; for Herbicidal action against PHBPU: post-emergence, dosage 80 g/ha
Description: as §1

[4] = tested on: Setaria viridis; test: Post-emergence herbicidal action, SETVI; set-up: key: % herbicidal action vs untreated; 100 = plants died, 0 = like control; conditions: for herbicidal action SETVI: Dosage 80 g/ha; for Herbicidal action against SETVI: post-emergence, dosage 80 g/ha
Description: as §1

[5] = tested on: Echinochloa crus-galli; test: Post-emergence herbicidal action, ECHCG; set-up: key: % herbicidal action vs untreated; 100 = plants died, 0 = like control; conditions: for herbicidal action ECHCG: Dosage 80 g/ha; for Herbicidal action against ECHCG: post-emergence, dosage 80 g/ha
Description: as §1

[6] = tested on: Viola tricolor; test: Pre-emergence herbicidal action, VIOTR; set-up: key to Herbicidal action against VIOTR: % activity: 100 = plants have died, 0 = like control plants; conditions: for herbicidal action VIOTR: dosage 320 g/ha
Description: as §2

[7] = tested on: Veronica persica; test: Post-emergence herbicidal action, VERPE; set-up: key: % herbicidal action vs untreated; 100 = plants died, 0 = like control; conditions: for herbicidal action VERPE: Dosage 80 g/ha; for Herbicidal action against VERPE: post-emergence, dosage 80 g/ha
Description: as §1

[8] = tested on: Viola tricolor; test: Post-emergence herbicidal action, VIOTR; set-up: key: % herbicidal action vs untreated; 100 = plants died, 0 = like control; conditions: for herbicidal action VIOTR: Dosage 80 g/ha; for Herbicidal action against VIOTR: post-emergence
Description: as §1

[9] = tested on: Abutilon theophrasti; test: Post-emergence herbicidal action, ABUTH; set-up: key: % herbicidal action vs untreated; 100 = plants died, 0 = like control; conditions: for herbicidal action ABUTH: Dosage 80 g/ha; for Herbicidal action against ABUTH: post-emergence, dosage 80 g/ha
Description: as §1

[10] = tested on: Stellaria media; test: Post-emergence herbicidal action, STEME; set-up: key: % herbicidal action vs untreated; 100 = plants died, 0 = like control; conditions: for herbicidal action STEME: Dosage 80 g/ha; for Herbicidal action against STEME: post-emergence, dosage 80 g/ha
Description: as §1

[11] = tested on: Abutilon theophrasti; test: Pre-emergence herbicidal action, ABUTH; conditions: dosage 320 g/ha
Description: as §2

[12] = tested on: Matricaria inodora; test: Pre-emergence herbicidal action, MATIN; conditions: dosage 320 g/ha
Description: as §2

[13] = tested on: Amaranthus retroflexus; test: Post-emergence herbicidal action, AMARE; set-up: key: % herbicidal action vs untreated; 100 = plants died, 0 = like control; conditions: for herbicidal action AMARE: Dosage 80 g/ha; for Herbicidal action against AMARE: post-emergence, dosage 80 g/ha
Description: as §1

[14] = tested on: Amaranthus retroflexus; test: Pre-emergence herbicidal action, AMARE; set-up: key to Herbicidal action against AMARE: % activity: 100 = plants have died, 0 = like control plants; conditions: for herbicidal action AMARE: dosage 320 g/ha
Description: as §2

[15] = tested on: Stellaria media; test: Pre-emergence herbicidal action, STEME; conditions: dosage 320 g/ha
Description: as §2

[16] = tested on: Echinochloa crus-galli; test: Pre-emergence herbicidal action, ECHCG; conditions: dosage 320 g/ha
Description: as §2

[17] = comparative experiment, 20 g of a.i./ha

Row | Compound | herbicidal action VERPE [2] [%] | herbicidal action VIOTR [6] [%] | herbicidal action ABUTH [11] [%] | herbicidal action MATIN [12] [%] | herbicidal action AMARE [14] [%] | Herbicidal action against ECHCG [5] | Herbicidal action against VERPE [7] | Herbicidal action against VIOTR ([8]; dosage 80 g/ha) | Herbicidal action against STEME [10] | Herbicidal action against AMARE [13] | Herbicidal action against PHBPU [3] | Herbicidal action against ABUTH [9] | herbicidal action ECHCG [16] [%] | other results
1 | CSCc1c(S(C)(=O)=O)ccc(C(=O)Nc2nnnn2C)c1C [Example 1-37] | 90 | 100 | 80 | 80 | 100 | – | – | – | – | – | – | – | – | herbicidal action MATIN [1]: 80; herbicidal action PHBPU [3]: 90; herbicidal action SETVI [4]: 100; herbicidal action ECHCG [5]: 100; herbicidal action VERPE [7]: 100; herbicidal action VIOTR [8]: 100; herbicidal action ABUTH [9]: 90; herbicidal action STEME [10]: 100; herbicidal action AMARE [13]: 100
2 | Cc1c(C(=O)Nc2nnnn2C)ccc(S(C)(=O)=O)c1C[S+](C)[O-] (stereo not shown) [Example 1-38] | 100 | – | – | 90 | 80 | 90 | 90 | 80 | 100 | 100 | – | – | – | herbicidal action STEME [15]: 90%
3 | Cc1c(C(=O)Nc2nnnn2C)ccc(Cl)c1C[S+](C)[O-] (stereo not shown) [Example 1-47] | – | – | – | – | – | – | – | – | – | – | – | – | – | Herbicidal action against VIOTR [6, 17]: 30; Herbicidal action against AMARE [14, 17]: 80
4 | Cn1nnnc1NC(=O)c1ccc(C(F)(F)F)c(CS(C)(=O)=O)c1S(C)(=O)=O [Example 1-199] | 100 | – | – | 90 | 90 | 80 | 80 | 90 | 90 | 80 | 80 | 90 | 90 | –
5 | COc1c(C(=O)Nc2nnnn2C)ccc(Cl)c1C[S+](C)[O-] (stereo not shown) [Example 1-571] | 80 | – | 100 | – | 90 | – | – | – | – | – | – | – | – | herbicidal action MATIN [1]: 80; herbicidal action PHBPU [3]: 90; herbicidal action SETVI [4]: 80; herbicidal action ECHCG [5]: 90; herbicidal action VERPE [7]: 90; herbicidal action VIOTR [8]: 80; herbicidal action ABUTH [9]: 80; herbicidal action STEME [10]: 100; herbicidal action AMARE [13]: 80
6 | COc1c(C(=O)Nc2nnnn2C)ccc(Cl)c1CS(C)(=O)=O [Example 1-572] | 80 | – | 80 | – | 100 | 90 | 90 | 80 | – | 90 | 80 | 80 | 80 | Herbicidal action against SETVI [4]: 80; Herbicidal action against VIOTR ([8]; comparative experiment, 5 g of a.i./ha): 50
7 | CCCn1nnnc1NC(=O)c1ccc(C(F)F)c(CS(C)(=O)=O)c1C [Example 3-109] | 90 | 100 | 100 | 100 | 100 | 90 | 100 | 100 | 100 | 100 | 90 | – | 100 | Herbicidal action against MATIN [1]: 100; Herbicidal action against SETVI [4]: 90
8 | CCCn1nnnc1NC(=O)c1ccc(I)c(CSC)c1Cl [Example 3-362] | – | 80 | – | – | – | 80 | – | – | – | 80 | – | 80 | – | Herbicidal action against MATIN [1]: 90
